In this experiment the test system is TGFβ signal. Kind of experiment: TGFβ signal inhibitory activity, (SBE)4-Luc luciferase reporter in A549 cells. Type of experiment: cell-based, human. The following applies: TGFβ-1 2 ng/ml, A549 (SBE)4-Luc; for inhibition at 3 µM / inhibition at 10 µM: Homo sapiens, A549, 4 h; for TGFβ inhibition, %: 4 hr. On the procedure:
The TGFβ signal inhibitory activity of compounds according to the present invention was evaluated according to the method described in J. Boil. Chem., 273, 21145-21152 (1998). Specifically, a luciferase gene driving by four tandem binding sequences of Smad2/3, which are TGFβ signal transfer factors was used as a reporter gene ((SBE)4-Luc). This reporter gene was introduced into human lung cancer epithelial cells (A549) (available from ATCC) to establish a stable cell line expressing its gene. A test compound and TGFβ-1 (2 ng/ml) were added to the cells, and the mixture was cultured for 4 hr. Compounds according to the present invention synthesized in the above working examples were used as the test compound. After the culture, the luciferase activity of cells was measured by a chemiluminescence method (Steady Glo (trademark) luciferase assay system available from Promega). Likewise, the luciferase activity was measured for control cells, that is, cells which had been cultured with the addition of TGFβ only, and cells which had been cultured without the addition of TGFβ and the test compound. The TGFβ inhibition rate (%) was calculated based on the results of measurement according to the following equation: TGFβ inhibition rate (%)=(A−B)/(A−C)×100 wherein A, B and C have the following respective meanings: A: luciferase activity in the case where TGFβ1 was added and the test compound was not added (relative luciferase unit); B: luciferase activity in the case where both TGFβ1 and the test compound were added (relative luciferase unit); and C: luciferase activity in the case where neither TGFβ1 nor the test compound was added (relative luciferase unit). The test was carried out for each of a test compound concentration of 3 μM and a test compound concentration of 10 μM. For given test compounds, the test was further carried out for a test compound concentration of 1 μM.

Consider 16 compounds from patent US7560558B2, “Compound having TGFβ inhibitory activity and medicinal composition containing the same” (Kirin Beer Kabushiki Kaisha, priority 2002, dated 2009).

Counter-ions that a name gives are not always drawn.

`COc1ccc(Oc2ccnc3cc(OC)c(OC)cc23)c(C(C)=O)c1` [Compound 36, 1-{2-[(6,7-Dimethoxy-4-quinolyl)oxy]-5-methoxyphenyl}-1-ethanone] had an inhibition at 3 µM (test compound 3 μM) of 95%. The same compound displayed an inhibition at 10 µM (test compound 10 μM) of 100%.
For `COc1cc2nccc(Oc3ccccc3C(=O)c3ccccc3)c2cc1OC` [Compound 62, {2-[(6,7-Dimethoxy-4-quinolyl)oxy]-phenyl}(phenyl)-methanone] the same measures were 43% and 85%.
Take `COc1cc2nccc(Oc3ccccc3C(=O)c3ccccc3)c2cc1OC.Cl` [Compound 63, {2-[(6,7-Dimethoxy-4-quinolyl)oxy]-phenyl}(phenyl)-methanone hydrochloride]: the “TGFβ inhibition, %” value by setting is: (test compound 3 μM) 57%; (test compound 10 μM) 91%.
`COc1cc2nccc(Oc3ccc(Cl)cc3C(=O)c3ccccc3)c2cc1OC` [Compound 68, {5-Chloro-2-[(6,7-dimethoxy-4-quinolyl)oxy]phenyl}-(phenyl)methanone]: for the setting “test compound 3 μM”, the inhibition at 3 µM stood at 89%. Under “test compound 10 μM”, this compound had an inhibition at 10 µM of 100%.
In the case of `COc1cc2nccc(Oc3ccc(Cl)cc3C(=O)c3ccccc3)c2cc1OC.Cl` [Compound 69, {5-Chloro-2-[(6,7-dimethoxy-4-quinolyl)oxy]phenyl}-(phenyl)methanone hydrochloride], the “TGFβ inhibition, %” value reads like this: (test compound 3 μM) 100%; (test compound 10 μM) 100%.
On to `COc1cc2nccc(Oc3ccc(C)cc3C(=O)c3ccccc3)c2cc1OC` [Compound 71, {2-[(6,7-Dimethoxy-4-quinolyl)oxy]-5-methylphenyl}-(phenyl)methanone], for which, where the note is “test compound 3 μM”, the inhibition at 3 µM was 79%. Where the note is “test compound 10 μM”, this compound registered an inhibition at 10 µM of 100%.
For `COc1cc2nccc(Oc3ccc(C)cc3C(=O)c3ccccc3)c2cc1OC.Cl` [Compound 72, {2-[(6,7-Dimethoxy-4-quinolyl)oxy]-5-methylphenyl}-(phenyl)methanone hydrochloride], the “TGFβ inhibition, %” value reads like this: (test compound 3 μM) 98%; (test compound 10 μM) 100%.
Where the note is “test compound 3 μM”, `COc1cc2nccc(Oc3cc(C)c(C)cc3C(=O)c3ccccc3)c2cc1OC` [Compound 76, {2-[(6,7-Dimethoxy-4-quinolyl)oxy]-4,5-dimethylphenyl}-(phenyl)methanone hydrochloride] displayed an inhibition at 3 µM of 95%. The inhibition at 10 µM (test compound 10 μM) is 100%.
On to `COc1ccc(Oc2ccnc3cc(OC)c(OC)cc23)c(C(C)=O)c1.Cl` [Compound 177, 1-[2-(6,7-Dimethoxy-quinolin-4-yloxy)-5-methoxy-phenyl]-ethanone hydrochloride], for which the “TGFβ inhibition, %” value is, setting by setting: (test compound 3 μM) 94%; (test compound 10 μM) 100%.
Under “test compound 10 μM”, `COc1cc2nccc(Oc3cc(C)c(C)cc3/C(C)=N/O)c2cc1OC` [Compound 195, 1-[2-(6,7-Dimethoxy-quinolin-4-yloxy)-4,5-dimethyl-phenyl]-ethanone oxime] registered an inhibition at 10 µM of 100%.
On to `C=CCO/N=C(\C)c1cc(C)c(C)cc1Oc1ccnc2cc(OC)c(OC)cc12` [Compound 197, 1-[2-(6,7-Dimethoxy-quinolin-4-yloxy)-4,5-dimethyl-phenyl]-ethanone o-allyl-oxime], for which 3 µM produced 40% inhibition (test compound 3 μM).
Compound `COc1cc2nccc(Oc3ccc(F)nc3I)c2cc1OC` [Compound 211, 4-(6-Fluoro-2-iodo-pyridin-3-yloxy)-6,7-dimethoxy-quinoline] returned an inhibition at 3 µM (test compound 3 μM) of 87%. The inhibition at 10 µM (test compound 10 μM) stood at 100%.
For the compound `COc1cc2c(Oc3cc(C)c(C)cc3C(C)=O)ccnc2cc1OCCCN1CCOCC1` [Compound 319, 1-{2-[6-Methoxy-7-(3-morpholin-4-yl-propoxy)-quinolin-4-yloxy]-4,5-dimethyl-phenyl}-ethanone], where the note is “test compound 10 μM”, at 10 µM the inhibition was 100%.
Turning to `COc1cc2c(Oc3cc(C)c(C)cc3C(C)=O)ccnc2cc1OCCCN1CCOCC1.Cl.Cl` [Compound 320, 1-{2-[6-Methoxy-7-(3-morpholin-4-yl-propoxy)-quinolin-4-yloxy]-4,5-dimethyl-phenyl}-ethanone hydrochloride], the “TGFβ inhibition, %” value by setting is: (test compound 3 μM) 100%; (test compound 10 μM) 100%.
On to `COc1cc2c(Oc3cc4ccccc4nc3C)ccnc2cc1OCCN1CCOCC1` [Compound 365, 6-Methoxy-4-(2-methyl-quinolin-3-yloxy)-7-(2-morpholin-4-yl-ethoxy)-quinoline], for which the inhibition at 3 µM (test compound 3 μM) came out at 100%. Where the note is “test compound 10 μM”, the inhibition at 10 µM stood at 100%.
For the compound `COc1cc2c(Oc3cc4ccccc4nc3C)ccnc2cc1OCCN1CCOCC1.Cl.Cl.Cl` [Compound 366, 6-Methoxy-4-(2-methyl-quinolin-3-yloxy)-7-(2-morpholin-4-yl-ethoxy)-quinoline hydrochloride], the “TGFβ inhibition, %” value is, setting by setting: (test compound 3 μM) 100%; (test compound 10 μM) 100%.
